The record followed here is US7135466B2 (Kirin Beer Kabushiki Kaisha, priority 1999, dated 2006).

A value given as a limit tells only on which side of the number the result lay.

The target of this test is T1, PDGF-Ra (Homo sapiens, UniProt P16234).
T1 construct: host or cells: G-292 human osteosarcoma cells
Kind of test: Inhibitory activity against PDGF-Ra phosphorylation by PDGF-AA stimulation using G292. The following applies: for IC50: > means inhibition at indicated concentration not more than 50%, < and << not less than 50%, read-out: PDGF (E) IC50; for inhibition at 0.1 µM: G292, figure within parentheses in >100( ), at 100 nM, read-out: PDGF (E) inhibition (%) at 100 nM. The class given is cell-based. The essentials: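 In G-292 osteosarcoma cells kept overnight in 0.1% FBS, compound exposure (1 hr, 37 °C) preceded PDGF-AA stimulation at 50 ng/ml for 5 min; receptor phosphotyrosine was then detected by PY-20 capture ELISA.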

T1 sequence (P16234 24-1089): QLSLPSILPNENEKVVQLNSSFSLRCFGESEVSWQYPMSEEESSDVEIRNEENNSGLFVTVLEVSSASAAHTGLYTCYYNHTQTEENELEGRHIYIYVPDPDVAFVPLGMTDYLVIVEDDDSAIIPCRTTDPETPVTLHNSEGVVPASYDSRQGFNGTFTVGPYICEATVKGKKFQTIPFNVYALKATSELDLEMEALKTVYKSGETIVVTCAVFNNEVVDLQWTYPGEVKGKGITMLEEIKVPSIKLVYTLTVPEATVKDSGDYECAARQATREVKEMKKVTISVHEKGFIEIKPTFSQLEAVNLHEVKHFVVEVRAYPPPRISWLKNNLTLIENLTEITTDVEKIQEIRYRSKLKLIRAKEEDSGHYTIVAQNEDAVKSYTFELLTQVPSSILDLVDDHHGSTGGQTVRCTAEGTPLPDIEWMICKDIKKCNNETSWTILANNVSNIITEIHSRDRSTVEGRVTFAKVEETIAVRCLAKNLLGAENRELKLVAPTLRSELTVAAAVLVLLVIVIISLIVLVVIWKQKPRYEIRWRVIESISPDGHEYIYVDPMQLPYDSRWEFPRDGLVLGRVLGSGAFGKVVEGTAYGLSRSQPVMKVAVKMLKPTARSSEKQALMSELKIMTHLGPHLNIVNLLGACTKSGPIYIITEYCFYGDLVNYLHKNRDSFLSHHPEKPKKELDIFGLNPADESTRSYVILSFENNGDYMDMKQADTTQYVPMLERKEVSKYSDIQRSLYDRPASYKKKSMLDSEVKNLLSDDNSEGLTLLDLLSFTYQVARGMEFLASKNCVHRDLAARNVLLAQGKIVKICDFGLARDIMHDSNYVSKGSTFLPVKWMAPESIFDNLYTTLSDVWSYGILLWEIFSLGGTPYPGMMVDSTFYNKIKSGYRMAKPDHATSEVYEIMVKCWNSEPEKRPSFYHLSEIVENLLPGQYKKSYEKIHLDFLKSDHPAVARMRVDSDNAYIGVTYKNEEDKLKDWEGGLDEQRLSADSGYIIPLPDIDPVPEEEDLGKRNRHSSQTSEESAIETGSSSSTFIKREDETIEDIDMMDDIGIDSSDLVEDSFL

`COc1cc2nccc(Oc3ccc(NC(=O)NN4CCCCC4)c(C)c3C)c2cc1OC` [Example 593, N-{4-[(6,7-Dimethoxy-4-quinolyl)oxy]-2,3-dimethylphenyl}-N′-(1-piperidinyl)urea]: the IC50 amounted to 51 nM.

On to `CCN(CC)CCNC(=O)Nc1ccc(Oc2ccnc3cc(OC)c(OC)cc23)cc1C` [Example 649, N-[2-(Diethylamino)ethyl]-N′-{4-[(6,7-dimethoxy-4-quinolyl)oxy]-2-methylphenyl}urea], for which the IC50 was determined as 39 nM.

Turning to `COc1cc2ncnc(Oc3ccc(NC(=O)NCCN(C(C)C)C(C)C)c([N+](=O)[O-])c3)c2cc1OC` [Example 659, N-[2-(Diisopropylamino)ethyl]-N′-{4-[(6,7-dimethoxy-4-quinazolinyl)oxy]-2-nitrophenyl}urea], the IC50 is 19 nM.

For `COc1ccc(CCC(=O)NC(=S)Nc2ccc(Oc3ccnc4cc(OC)c(OC)cc34)c(Cl)c2)cc1OC` [Example 712, N-{3-Chloro-4-[(6,7-dimethoxy-4-quinolyl)oxy]phenyl}-N′-[3-(3,4-dimethoxyphenyl)propanoyl]thiourea], the IC50 was 83 nM.

On to `COc1cc2nccc(Oc3cc(C)c(NC(=S)NC(=O)c4cc(C)oc4C)cc3C)c2cc1OC` [Example 717, N-{4-[(6,7-Dimethoxy-4-quinolyl)oxy]-2,5-dimethylphenyl}-N′-[(2 5-dimethyl-3-furyl)carbonyl]thiourea], for which the IC50 was more than 100 nM and the inhibition at 0.1 µM was 8%.

In the case of `COc1cc2nccc(Oc3ccc(NC(=S)NC(=O)CCCCc4ccccc4)cc3)c2cc1OC` [Example 727, N-{4-[(6,7-Dimethoxy-4-quinolyl)oxy]phenyl}-N′-(5-phenylpentanoyl)thiourea], the IC50 amounted to 52 nM.

On to `COc1cc2nccc(Oc3ccc(NC(=S)NC(=O)CCc4ccccc4C)cc3Cl)c2cc1OC` [Example 732, N-{3-Chloro-4-[(6,7-dimethoxy-4-quinolyl)oxy]phenyl}-N′-[3-(2-methylphenyl)propanoyl]thiourea], for which the IC50 came out at 48 nM.

Regarding `COc1cc2nccc(Oc3ccc(NC(=S)NC(=O)Cc4ccccc4[N+](=O)[O-])cc3)c2cc1OC` [Example 735, N-{4-[(6,7-Dimethoxy-4-quinolyl)oxy]phenyl}-N′-[2-(2-nitrophenyl)acetyl]thiourea], the IC50 was determined as 15 nM.

Turning to `COc1cc2nccc(Oc3ccc(NC(=S)NC(=O)Cc4ccccc4[N+](=O)[O-])cc3Cl)c2cc1OC` [Example 736, N-{3-Chloro-4-[(6,7-dimethoxy-4-quinolyl)oxy]phenyl}-N′-[2-(2-nitrophenyl)acetyl]thiourea], the IC50 amounted to 72 nM.

As for `CCC(Oc1ccccc1)C(=O)NC(=S)Nc1ccc(Oc2ccnc3cc(OC)c(OC)cc23)cc1` (centres unmarked) [Example 741, N-{4-[(6,7-Dimethoxy-4-quinolyl)oxy]phenyl}-N′-(2-phenoxybutanoyl)thiourea], the IC50 came to 49 nM.

With `CCC(Oc1ccccc1)C(=O)NC(=S)Nc1ccc(Oc2ccnc3cc(OC)c(OC)cc23)c(Cl)c1` (centres unmarked) [Example 742, N-{3-Chloro-4-[(6,7-dimethoxy-4-quinolyl)oxy]phenyl}-N′-(2-phenoxybutanoyl)thiourea], the IC50 amounted to 92 nM.

`COc1cc2nccc(Oc3ccc(NC(=S)NC(=O)[C@H](C)c4ccccc4)cc3Cl)c2cc1OC` [Example 744, N-{3-Chloro-4-[(6,7-dimethoxy-4-quinolyl)oxy]phenyl}-N′-[(2R)-2-phenylpropanoyl]thiourea]: the IC50 is 40 nM.

For `COc1cc2nccc(Oc3ccc(NC(=S)NC(=O)C(C)Oc4ccccc4)cc3)c2cc1OC` (centres unmarked) [Example 745, N-{4-[(6,7-Dimethoxy-4-quinolyl)oxy]phenyl}-N′-(2-phenoxypropanoyl)thiourea], the IC50 was 53 nM.

As for `COc1cc2nccc(Oc3ccc(NC(=S)NC(=O)C(C)Oc4ccccc4)cc3Cl)c2cc1OC` (centres unmarked) [Example 746, N-{3-Chloro-4-[(6,7-dimethoxy-4-quinolyl)oxy]phenyl}-N′-(2-phenoxypropanoyl)thiourea], the IC50 was more than 100 nM and the inhibition at 0.1 µM was 31%.

With `CCC(C(=O)NC(=S)Nc1ccc(Oc2ccnc3cc(OC)c(OC)cc23)c(Cl)c1)c1ccccc1` (centres unmarked) [Example 748, N-{3-Chloro-4-[(6,7-dimethoxy-4-quinolyl)oxy]phenyl}-N′-(2-phenylbutanoyl)thiourea], the IC50 turned out to be 85 nM.

Consider `CCCCOc1ccc(C(=O)NC(=S)Nc2ccc(Oc3ccnc4cc(OC)c(OC)cc34)c(Cl)c2)cc1` [Example 752, N-(4-Butoxybenzoyl)-N′-{3-chloro-4-[(6,7-dimethoxy-4-quinolyl)oxy]phenyl}thiourea], for which the IC50 is more than 100 nM and the inhibition at 0.1 µM is 37%.

In the case of `CCCCCOc1ccc(C(=O)NC(=S)Nc2ccc(Oc3ccnc4cc(OC)c(OC)cc34)c(Cl)c2)cc1` [Example 754, N-{3-Chloro-4-[(6,7-dimethoxy-4-quinolyl)oxy]phenyl}-N′-[4-(pentyloxy)benzoyl]thiourea], the IC50 is more than 100 nM and the inhibition at 0.1 µM was found to be 7%.

With `CCCCCCOc1ccc(C(=O)NC(=S)Nc2ccc(Oc3ccnc4cc(OC)c(OC)cc34)cc2)cc1` [Example 755, N-{4-[(6,7-Dimethoxy-4-quinolyl)oxy]phenyl}-N′-[4-(hexyloxy)benzoyl]thiourea], the half-maximal inhibitory concentration (IC50) is more than 100 nM and the inhibition at 0.1 µM stood at 3%.

Consider `COc1cc2nccc(Oc3ccc(NC(=S)NC(=O)C(C)(C)Oc4ccc(Cl)cc4)cc3)c2cc1OC` [Example 757, N-[2-(4-Chlorophenoxy)-2-methylpropanoyl]-N′-{4-[(6,7-dimethoxy-4-quinolyl)oxy]phenyl}thiourea], for which the IC50 was more than 100 nM and the inhibition at 0.1 µM was determined as 45%.

Take `COc1cc2nccc(Oc3ccc(NC(=S)NC(=O)C(C)(C)Oc4ccc(Cl)cc4)cc3Cl)c2cc1OC` [Example 758, N-{3-Chloro-4-[(6,7-dimethoxy-4-quinolyl)oxy]phenyl}-N′-[2-(4-chlorophenoxy)-2-methylpropanoyl]thiourea]: the IC50 is more than 100 nM and the inhibition at 0.1 µM was determined as 18%.

Consider `COc1cc2nccc(Oc3ccc(NC(=S)NC(=O)C(OC)c4ccccc4)cc3Cl)c2cc1OC` (centres unmarked) [Example 762, N-{3-Chloro-4-[(6,7-dimethoxy-4-quinolyl)oxy]phenyl}-N′-(2-methoxy-2-phenylacetyl)thiourea], for which the IC50 was more than 100 nM.

In the case of `COc1cc2nccc(Oc3ccc(NC(=S)NC(=O)C4CCCO4)cc3Cl)c2cc1OC` (centres unmarked) [Example 766, N-{3-Chloro-4-[(6,7-dimethoxy-4-quinolyl)oxy]phenyl}-N′-tetrahydro-2-furanylcarbonylthiourea], the concentration for half-maximal inhibition (IC50) was more than 100 nM and the inhibition at 0.1 µM worked out at 45%.

Regarding `COc1cc2ncnc(Oc3ccc(O)cc3)c2cc1OC` [Example 773, 4-[(6,7-Dimethoxy-4-quinazolinyl)oxy]phenol], the IC50 is more than 100 nM.

On to `COC(=O)COc1ccc(Oc2ncnc3cc(OC)c(OC)cc23)cc1` [Example 774, Methyl 2-{4-[(6,7-dimethoxy-4-quinazolinyl)oxy]phenoxy}acetate], for which the IC50 was more than 100 nM and the inhibition at 0.1 µM was determined as 17%.

Turning to `COc1cc2ncnc(Oc3ccc(OCC(=O)O)cc3)c2cc1OC` [Example 775, 2-{4-[(6,7-Dimethoxy-4-quinazolinyl)oxy]phenoxy}acetic acid], the IC50 is more than 100 nM and the inhibition at 0.1 µM was found to be 22%.
